The target in series [1] is GSK-3αβ. The experiment in a line: GSK-3 kinase inhibition (GS-1 substrate). The conditions noted are these: read-out: IC50 μM Kinases GSK3, buffer A, 30° C., 15 μM ATP.
The target in series [2] is T1, CDK5/D25 (Homo sapiens, UniProt Q00535).
T1 construct: made in house
Nature of the series: CDK5 kinase inhibition (33P-ATP, histone H1). Particulars: buffer C, 30° C., 15 μM ATP, read-out: IC50 μM Kinases CDK5. The series is classed as biochemical. On the procedure:
The protein kinase inhibition activities of the compounds of the invention are tested according to the following general procedure:
Buffer C: 60 mM β-glycerophosphate, 15 mM p-nitrophenyl-phosphate, 25 mM Mops (pH 7.2), 5 mM EGTA, 15 mM mgCl2, 1 mM DTT, 1 mM sodium vanadate and 1 mM phenylphosphate.
The controls were made with suitable dilutions of DMSO.
ATP (3.000 Ci/mmol.; 10 mCi/mL) in a final volume of 30 μL. After 30 mins of incubation at 30° C., 25 μL of supernatant aliquots were deposited on phosphocellulose Whatman P81 paper pieces of 2.5×3 cm, and after 20 seconds, the filters were washed five times (for at least 5 minutes each time) in a solution of 10 mL of phosphoric acid/1 litre of water. The wet filters were counted in the presence of 1 mL of scintillation fluid ACS (Amersham).

Series [3] has as its target DYRK1A (Homo sapiens, UniProt Q13627). Nature of the series: DYRK1A kinase inhibition (Woodtide substrate).
The subject of series [4] is HCT 116 (colon). The experiment in a line: Cytotoxicity on human cells, automated nuclei counting: HCT 116. The conditions noted are these: HCT 116 cells, exposed 24 h to 48 h, 0.1 to 25 μM. Type of series: cell-based. How it is done:
(§1) Cytotoxicity: This method is based on an automated imaging analysis. 4.10^3 cells were cultivated on 96-well plates and left for 24 hours so as to bind, to spread and proliferate.
(§2) All the cell lines were cultivated in a DMEM or RPMI (Invitrogen) medium. All these media were completed with antibiotics (penicillin-streptomycin) (Lonza) and 10% by volume of fetal calf serum (Invitrogen). The cells were cultivated at 37° C. with 5% of CO2. The treatments with the molecules to be tested were carried out with increasing concentrations. The control experiments were also carried out by using suitable dilutions of DMSO (maximum 1% DMSO).

For series [5], the system named is Huh7 (liver). Nature of the series: Cytotoxicity on human cells, automated nuclei counting: Huh7. Type of series: cell-based. Particulars: Huh-7, exposed 24 h to 48 h, 0.1 to 25 μM. On the procedure:
as §1, §2

The subject of series [6] is fibroblast. The experiment in a line: Cytotoxicity on human cells, automated nuclei counting: fibroblast. The series is classed as cell-based. Particulars: exposed 24 h to 48 h, 0.1 to 25 μM. On the procedure:
as §1, §2

Series [7] has as its system NCI (lung). Nature of the series: Cytotoxicity on human cells, automated nuclei counting: NCI. Type of series: cell-based. Particulars: exposed 24 h to 48 h, 0.1 to 25 μM. How it is done: as §1, §2
The test system of series [8] is PC3 (prostate). The experiment in a line: Cytotoxicity on human cells, automated nuclei counting: PC3. Type of series: cell-based. Particulars: PC-3, exposed 24 h to 48 h, 0.1 to 25 μM. How it is done:
as §1, §2

For series [9], the system named is Caco (colon). Nature of the series: Cytotoxicity on human cells, automated nuclei counting: Caco. The series is classed as cell-based. Particulars: exposed 24 h to 48 h, 0.1 to 25 μM. How it is done:
as §1, §2

Series [10] deals with MDA-MB 231 (breast). Nature of the series: Cytotoxicity on human cells, automated nuclei counting: MDA-MB 231. Particulars: MDA-MB 231 cells, exposed 24 h to 48 h, 0.1 to 25 μM. The series is classed as cell-based. How it is done:
as §1, §2

Where only a bound is given, the exact number is not on record here.

T1 sequence (Q00535 whole entry): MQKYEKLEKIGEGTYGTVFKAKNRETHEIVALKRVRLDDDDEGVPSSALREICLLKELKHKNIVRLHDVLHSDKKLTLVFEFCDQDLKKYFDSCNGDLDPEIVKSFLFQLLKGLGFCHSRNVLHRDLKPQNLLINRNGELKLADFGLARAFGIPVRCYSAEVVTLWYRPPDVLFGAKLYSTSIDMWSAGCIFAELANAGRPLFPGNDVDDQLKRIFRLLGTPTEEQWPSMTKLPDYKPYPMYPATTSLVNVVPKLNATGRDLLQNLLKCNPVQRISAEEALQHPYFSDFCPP
T1 sequence (Q15078 99-307 partner limits assumed): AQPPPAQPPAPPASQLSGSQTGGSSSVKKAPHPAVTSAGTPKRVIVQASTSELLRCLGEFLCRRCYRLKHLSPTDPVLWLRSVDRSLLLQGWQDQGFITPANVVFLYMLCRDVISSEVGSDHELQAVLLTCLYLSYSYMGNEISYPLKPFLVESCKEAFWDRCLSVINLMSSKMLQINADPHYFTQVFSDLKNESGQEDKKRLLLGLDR

`Cn1ccc(NC(=O)Nc2cccc3c2C2CCCCN2C3=O)n1` (stereo not drawn) [Compound 41, 1-(1-Methyl-1H-pyrazol-3-yl)-3-(6-oxo-1,2,3,4,6,10b-hexahydro-pyrido[2,1-a]isoindol-10-yl)-urea] showed a melting point of 233 °C. Besides, the half-inhibitory concentration (IC50) in [1] was 0.31 µM. Further, the IC50 in series [2] came out at 0.51 µM. The IC50 in series [3] is > 10000 nM.

As to `O=C1CCN2C(=O)c3cccc(NC(=O)Nc4cc(O)c5ccccc5n4)c3C2C1` (stereo not drawn) [Compound 103, 1-(2,6-Dioxo-1,2,3,4,6,10b-hexahydropyrido[2,1-a]isoindol-10-yl)-3-(4-hydroxyquinolin-2-yl)urea], the melting point was > 260 °C. The IC50 in [1] is 1.3 µM. For the same compound, the IC50 in series [2] is > 10 µM. In addition, the IC50 in series [3] is ≥ 10000 nM.

In turn, `O=C(Nc1cc[nH]n1)Nc1cccc2c1C1CCCCN1C2=O` (stereo not drawn) [Compound 119, 1-(6-Oxo-1,2,3,4,6,10b-hexahydro-pyrido[2,1-a]isoindol-10-yl)-3-(1H-pyrazol-3-yl)-urea] came in with a melting point of 185 °C. Further, the IC50 in [1] is 0.47 µM. Moreover, the IC50 in [3] was > 10000 nM.

For the compound `O=C(Nc1cc(O)c2ccccc2n1)Nc1cccc2c1C1CC(O)CCN1C2=O` (stereo not drawn) [Compound 110, 1-(2-Hydroxy-6-oxo-1,2,3,4,6,10b-hexahydropyrido[2,1-a]isoindol-10-yl)-3-(4-hydroxyquinolin-2-yl)urea], the melting point was > 260 °C. Also, the IC50 in [1] was found to be 2.5 µM. Also, the IC50 in [2] is > 10 µM. The IC50 in [3] is ≥ 10000 nM.

Take `COC1CCN2C(=O)c3cccc(NC(=O)Nc4ncccc4C)c3C2C1` (stereo not drawn) [Compound 57, 1-(2-Methoxy-6-oxo-1,2,3,4,6,10b-hexahydropyrido[2,1-a]isoindol-10-yl)-3-(3-methylpyridin-2-yl)urea]: the IC50 in series [4] is 1 µM; in [5] it was 1.2 µM; in series [2] it was 1.1 µM; in series [6], 3 µM; in series [7] it was 4 µM; in [8] it was 1.2 µM. Besides, the IC50 in series [9] is 2 µM; in series [3] it was > 10000 nM; in series [10] it was 2.2 µM.

In turn, `CC(C)(C)OC(=O)n1ccc(NC(=O)Nc2cccc3c2C2CCCCN2C3=O)n1` (stereo not drawn) [Compound 118] registered a melting point of 136 °C. Moreover, the IC50 in [1] came to 0.4 µM. Also, the IC50 in series [3] is > 10000 nM.

`O=C(Nc1ccccn1)Nc1cccc2c1C1C[C@@H](O)CCN1C2=O` (stereo partly drawn) [Compound 104, 1-((2S)-2-Hydroxy-6-oxo-1,2,3,4,6,10b-hexahydropyrido[2,1-a]iso-indol-10-yl)-3-(pyridin-2-yl)urea]: the melting point stood at 220 °C. In addition, in series [4], 1 µM corresponded to half-maximal inhibition (IC50). The compound further yielded an IC50 in series [5] of 2 µM. Moreover, the IC50 in series [2] is 2.1 µM. Further, in [6], the IC50 came to 2 µM. In series [7], the IC50 worked out at 3 µM. Further, 3 µM corresponded to half-maximal inhibition in [8] (IC50). In [9], this compound registered an IC50 of 7 µM. The compound further had an IC50 in [10] of 3 µM.

As to `COC1CCN2C(=O)c3cccc(NC(=O)Nc4ccn(C)n4)c3C2C1` (stereo not drawn) [Compound 60, 1-(2-methoxy-6-oxo-1,2,3,4,6,10b-hexahydropyrido[2,1-a]isoindol-10-yl)-3-(1-methyl-1H-pyrazol-3-yl)urea], the IC50 in [4] amounted to 4 µM; in series [5] it was 2 µM; in series [2] it was 2.3 µM; in [6] it was 15 µM; in series [7], 2 µM; in [8] it was 7 µM. Besides, the IC50 in [9] was 15 µM; in [3], > 10000 nM; in series [10], 10 µM.

The compound `O=C1CCN2C(=O)c3cccc(NC(=O)Nc4ccccn4)c3C2C1` (stereo not drawn) [Compound 97, 1-(2,6-Dioxo-1,2,3,4,6,10b-hexahydropyrido[2,1-a]isoindol-10-yl)-3-(pyridin-2-yl)urea] displayed a melting point of 254 °C. This compound also had an IC50 in series [4] of 2 µM. For the same compound, the IC50 in [5] came out at 3 µM. In addition, the IC50 in [2] came to 3.6 µM. In series [6], half-maximal inhibition (IC50) required 6 µM. In addition, in series [7], the IC50 came out at 2 µM. This compound also showed an IC50 in series [8] of 5 µM. The compound also returned an IC50 in series [9] of 7 µM. In addition, half-maximal inhibition in series [10] (IC50) required 3 µM.
